Experimental data: article PMC5216056 (Nature Communications, 2017)
Like-named read-outs stand apart in the source and are kept apart here.

What was measured:
Rat recombinant TRPM8 = target: T1, Rat recombinant TRPM8 (Rattus norvegicus, UniProt Q8R455); test: TRP channel [Ca2+]i assay; type: cell-based; settings: read-out: TRPM8 IC50 for antagonism of icilin
T1 construct: expressed in transfected cells; host or cells: HEK293 (TRPM8-HEK-293, gift from Mario van der Stelt)

hCB1R [1] = target: T2, hCB1R (Homo sapiens, UniProt P21554); test: cell-based; type: cell-based
T2 construct: host or cells: CHO

alpha 2A (h) = target: T3, alpha 2A (h) (Homo sapiens, UniProt P08913); test: CEREP panel; type: binding; settings: 10 µM
T3 construct: CEREP
T3 sequence (P08913 1-465): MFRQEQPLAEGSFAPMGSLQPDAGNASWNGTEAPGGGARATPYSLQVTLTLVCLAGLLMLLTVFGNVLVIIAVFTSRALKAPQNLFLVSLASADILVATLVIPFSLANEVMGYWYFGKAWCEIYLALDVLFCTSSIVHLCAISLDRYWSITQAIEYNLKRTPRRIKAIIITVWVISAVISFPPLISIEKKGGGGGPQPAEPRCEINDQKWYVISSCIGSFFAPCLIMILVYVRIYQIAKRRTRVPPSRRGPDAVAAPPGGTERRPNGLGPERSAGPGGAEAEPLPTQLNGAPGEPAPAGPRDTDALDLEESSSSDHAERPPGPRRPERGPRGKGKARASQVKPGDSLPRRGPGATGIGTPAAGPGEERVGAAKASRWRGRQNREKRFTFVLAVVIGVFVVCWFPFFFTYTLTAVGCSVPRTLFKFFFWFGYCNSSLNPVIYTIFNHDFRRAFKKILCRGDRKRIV

[2] = system: Ca2+ channel (L, diltiazem site); test: CEREP panel; type: binding; settings: 10 µM
[3] = i.v., mice; for C0: 1.0-2.0 mg/kg, extrapolated
AT1 (h) = target: T4, AT1 (h) (Homo sapiens, UniProt P30556); test: CEREP panel; type: binding; settings: 10 µM
T4 construct: CEREP
T4 sequence (P30556 1-359): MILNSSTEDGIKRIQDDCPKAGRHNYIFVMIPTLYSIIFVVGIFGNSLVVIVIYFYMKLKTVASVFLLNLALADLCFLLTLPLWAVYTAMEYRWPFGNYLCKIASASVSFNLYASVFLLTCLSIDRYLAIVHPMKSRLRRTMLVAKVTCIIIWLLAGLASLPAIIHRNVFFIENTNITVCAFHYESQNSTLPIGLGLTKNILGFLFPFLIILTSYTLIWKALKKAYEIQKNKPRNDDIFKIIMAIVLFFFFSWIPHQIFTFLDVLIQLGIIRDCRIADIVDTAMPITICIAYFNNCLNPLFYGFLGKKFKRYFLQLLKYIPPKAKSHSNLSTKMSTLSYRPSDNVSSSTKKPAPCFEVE

PPARgamma (h) = target: T5, PPARgamma (h) (Homo sapiens, UniProt P37231); test: CEREP panel; type: binding; settings: 10 µM
T5 construct: CEREP (contract assay)
T5 sequence (P37231 1-505): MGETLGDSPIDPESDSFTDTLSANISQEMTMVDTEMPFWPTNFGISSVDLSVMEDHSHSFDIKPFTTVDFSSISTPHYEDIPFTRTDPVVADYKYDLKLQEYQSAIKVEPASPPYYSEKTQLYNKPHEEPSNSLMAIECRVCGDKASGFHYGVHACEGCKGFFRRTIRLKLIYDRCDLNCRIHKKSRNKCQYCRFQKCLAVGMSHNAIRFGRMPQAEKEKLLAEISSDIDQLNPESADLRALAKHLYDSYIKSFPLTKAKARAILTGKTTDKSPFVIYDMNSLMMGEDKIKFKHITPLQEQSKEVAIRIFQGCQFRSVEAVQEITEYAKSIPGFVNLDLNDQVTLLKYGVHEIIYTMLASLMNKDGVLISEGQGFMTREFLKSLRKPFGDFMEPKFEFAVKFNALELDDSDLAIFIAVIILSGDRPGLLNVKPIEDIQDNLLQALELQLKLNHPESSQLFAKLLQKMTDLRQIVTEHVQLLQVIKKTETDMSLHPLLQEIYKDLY

Rat recombinant TRPV2 = target: T6, Rat recombinant TRPV2 (Rattus norvegicus, UniProt Q9WUD2); test: cell-based; type: cell-based; settings: for EC50: read-out: TRPV2 Potency EC50; for IC50: vs LPC 3μM, read-out: TRPV2 IC50 for antagonism or desensitization
T6 construct: expressed in transfected cells; host or cells: HEK293 (plasmid a gift from HB Bradshaw, Indiana University)
T6 sequence (Q9WUD2 1-761): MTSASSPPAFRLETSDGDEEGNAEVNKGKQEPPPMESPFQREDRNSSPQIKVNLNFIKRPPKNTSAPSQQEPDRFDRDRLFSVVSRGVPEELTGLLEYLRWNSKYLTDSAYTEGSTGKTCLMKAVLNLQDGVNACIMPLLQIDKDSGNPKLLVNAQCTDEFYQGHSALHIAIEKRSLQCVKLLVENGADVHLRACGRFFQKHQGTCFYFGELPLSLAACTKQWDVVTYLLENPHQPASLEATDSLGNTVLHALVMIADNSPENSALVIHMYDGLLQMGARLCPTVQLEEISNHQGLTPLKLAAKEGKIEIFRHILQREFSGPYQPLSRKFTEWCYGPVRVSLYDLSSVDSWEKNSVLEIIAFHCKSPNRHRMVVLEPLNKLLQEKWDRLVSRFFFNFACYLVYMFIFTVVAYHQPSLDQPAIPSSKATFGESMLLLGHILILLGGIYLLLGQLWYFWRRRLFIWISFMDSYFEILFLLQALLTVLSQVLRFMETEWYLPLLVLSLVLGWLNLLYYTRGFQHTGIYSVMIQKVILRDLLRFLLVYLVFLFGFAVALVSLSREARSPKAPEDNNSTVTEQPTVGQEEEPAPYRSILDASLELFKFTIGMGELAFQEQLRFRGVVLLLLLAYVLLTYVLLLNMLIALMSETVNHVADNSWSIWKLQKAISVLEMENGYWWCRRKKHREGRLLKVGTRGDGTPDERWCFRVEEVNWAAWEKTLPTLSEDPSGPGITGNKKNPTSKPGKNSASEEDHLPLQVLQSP

hCB1R [4] = target: T2, hCB1R; test: cell-based; type: cell-based; remark: listed apart in the source
MT3 (ML2) = target: T7, MT3 (ML2) (Mesocricetus auratus, UniProt A0ABM2YAB8); test: CEREP panel; type: binding; settings: for % inhibition MT3 (ML2): 10 µM
T7 construct: CEREP (contract assay)
T7 sequence (A0ABM2YAB8 1-231): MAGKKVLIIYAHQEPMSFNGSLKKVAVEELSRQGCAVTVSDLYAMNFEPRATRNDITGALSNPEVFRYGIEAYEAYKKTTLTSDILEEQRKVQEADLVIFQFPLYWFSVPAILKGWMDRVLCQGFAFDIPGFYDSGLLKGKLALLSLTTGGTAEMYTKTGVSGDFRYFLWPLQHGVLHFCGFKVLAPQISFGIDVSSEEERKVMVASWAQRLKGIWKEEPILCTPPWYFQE

T2 sequence (P21554 whole entry): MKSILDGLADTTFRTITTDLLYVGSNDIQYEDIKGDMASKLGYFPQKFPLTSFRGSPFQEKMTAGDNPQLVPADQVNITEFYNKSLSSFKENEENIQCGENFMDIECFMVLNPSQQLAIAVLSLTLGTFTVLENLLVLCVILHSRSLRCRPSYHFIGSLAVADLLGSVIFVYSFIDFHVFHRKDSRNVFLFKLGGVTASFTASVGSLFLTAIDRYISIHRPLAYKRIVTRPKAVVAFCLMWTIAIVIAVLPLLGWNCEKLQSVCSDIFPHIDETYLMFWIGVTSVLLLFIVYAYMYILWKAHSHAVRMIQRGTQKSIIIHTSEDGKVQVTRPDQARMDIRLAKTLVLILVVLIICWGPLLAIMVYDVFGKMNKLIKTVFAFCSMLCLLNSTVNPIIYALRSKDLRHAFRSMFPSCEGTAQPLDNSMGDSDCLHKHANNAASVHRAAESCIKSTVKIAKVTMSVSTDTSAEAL
T1 sequence (Q8R455 whole entry): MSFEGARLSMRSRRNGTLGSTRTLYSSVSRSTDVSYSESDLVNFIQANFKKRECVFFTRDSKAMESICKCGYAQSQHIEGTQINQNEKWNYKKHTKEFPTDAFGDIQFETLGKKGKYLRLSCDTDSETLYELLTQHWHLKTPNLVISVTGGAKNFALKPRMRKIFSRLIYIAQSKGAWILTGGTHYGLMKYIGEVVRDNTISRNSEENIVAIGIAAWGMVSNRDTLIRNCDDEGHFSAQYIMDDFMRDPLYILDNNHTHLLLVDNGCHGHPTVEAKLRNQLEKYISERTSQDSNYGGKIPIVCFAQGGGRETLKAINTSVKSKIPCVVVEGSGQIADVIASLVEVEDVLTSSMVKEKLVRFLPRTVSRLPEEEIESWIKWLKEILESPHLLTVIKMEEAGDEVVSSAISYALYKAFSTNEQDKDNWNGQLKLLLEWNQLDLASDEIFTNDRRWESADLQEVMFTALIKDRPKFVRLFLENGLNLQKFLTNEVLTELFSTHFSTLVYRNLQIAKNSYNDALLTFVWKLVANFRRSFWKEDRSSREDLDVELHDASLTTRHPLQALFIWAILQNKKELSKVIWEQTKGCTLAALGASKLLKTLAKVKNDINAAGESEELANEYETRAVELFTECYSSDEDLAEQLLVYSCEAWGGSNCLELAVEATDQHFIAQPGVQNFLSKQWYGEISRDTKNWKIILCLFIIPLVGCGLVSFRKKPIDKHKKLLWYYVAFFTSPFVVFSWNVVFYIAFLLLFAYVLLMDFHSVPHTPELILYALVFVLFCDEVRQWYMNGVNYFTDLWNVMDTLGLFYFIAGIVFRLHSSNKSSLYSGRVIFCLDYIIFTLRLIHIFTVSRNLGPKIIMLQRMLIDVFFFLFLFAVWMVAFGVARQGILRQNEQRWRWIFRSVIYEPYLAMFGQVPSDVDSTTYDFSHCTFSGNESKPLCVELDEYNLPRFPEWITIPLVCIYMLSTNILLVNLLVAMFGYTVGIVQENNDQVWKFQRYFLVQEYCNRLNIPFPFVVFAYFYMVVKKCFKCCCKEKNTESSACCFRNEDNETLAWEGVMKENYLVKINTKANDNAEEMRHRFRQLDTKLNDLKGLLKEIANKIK

Compound	IC50 (Rat recombinant TRPM8; vs icilin […])	pEC50 ± SEM GIRK hCB1R (hCB1R [1])	% inhibition alpha 2A (h) (alpha 2A (h))	% inhibition Ca2+ channel (L, diltiazem site) [2]	AUCinf [3]	AUCinf/dose [3]	AUClast [3]	CL [3]	T1/2 [3]	C0 [3]	% inhibition AT1 (h) (AT1 (h))	% inhibition PPARgamma (h) (PPARgamma (h))	TRPV2 Efficacy (% ionomycin 4μM) (Rat recombinant TRPV2)	EC50 (Rat recombinant TRPV2)	IC50 (Rat recombinant TRPV2)	Emax ± SEM β-AR recruitment hCB1R (hCB1R [4])	pEC50 ± SEM β-AR recruitment hCB1R (hCB1R [4])	% inhibition MT3 (ML2) (MT3 (ML2))	further results
CN1CCCC[C@H]1Cn1cc(C(=O)c2cc([N+](=O)[O-])ccc2I)c2ccccc21 [(S)-AM1241]	> 50 µM	< 5	10%	90%	276 ng·h/mL	145 kg·ng·h/mL/mg	269 ng·h/mL	6.9 L/h/kg	1.4 h	413 ng/mL	1%	23%	11.6%	5 µM	20.6 µM	2 ± 1	< 5	49%	Emax ± SEM GIRK hCB1R (hCB1R [1]; normalized to CP55940): 19 ± 3%
CCCCCCC(C)(C)c1ccc([C@@H]2C[C@H](O)CC[C@H]2CCCO)c(O)c1 [CP55940]				-7%															inhibition at 10 µM (alpha 2A (h); read-out: % inhibition alpha 2A (h)): 23%; inhibition at 10 µM (AT1 (h); read-out: % inhibition AT1 (h)): 63%; inhibition at 10 µM (PPARgamma (h); read-out: % inhibition PPARgamma (h)): 85%; Emax (hCB1R [4]; read-out: Emax ± SEM β-AR recruitment hCB1R): 94 ± 2%; inhibition at 10 µM (MT3 (ML2); read-out: % inhibition MT3 (ML2)): 22%
Cc1ccc2c(c1)Cc1c(C(=O)NN3CCCCC3)nn(-c3ccc(Cl)cc3Cl)c1-2 [Gp-1a]	> 50 µM	5.26 ± 0.1	30%	34%	825 ng·h/mL	412 kg·ng·h/mL/mg	658 ng·h/mL	2.4 L/h/kg	3.5 h	351 ng/mL	20%	86%	< 10%		11.9 µM	-83 ± 7	< 5	33%	
Cc1c(C(=O)c2cccc3ccccc23)c2cccc3c2n1[C@H](CN1CCOCC1)CO3 [WIN55212-2]	72.9 ± 4.5 µM		0%	55%							29%	39%	17.0%	14.8 µM	62 µM			69%	IC50 (Rat recombinant TRPM8; vs icilin 0.1μM (second value in cell)): 19 ± 2.2 µM
SR144528			-5%	10%							33%	31%	< 10%			-82 ± 5		-21%	Emax ± SEM GIRK hCB1R (hCB1R [1]): 9 ± 4
